# System: Propionibacterium acnes- antibiotic-resistant clinical isolate
# Settings: P. acnes antibiotic-resistant
structure (smiles),measurement,value
CCCCCCNC(=O)[C@H](CCCNC(=N)N)NC(=O)[C@H](Cc1c(C(C)(C)C)[nH]c2c(C(C)(C)C)cc(C(C)(C)C)cc12)NC(=O)[C@@H](N)CCCNC(=N)N [Compound 8],MIC,2 µg/mL
